This test has as its system A/Vietnam/1194/04(H5N1)-NIBRG-14 highly pathogenic avian influenza virus. It counts as cell-based.

The record followed here is patent US20130344183A1, “NOVEL COMPOUND ISOLATED FROM […] ROXB AND USE THEREOF AS ANTIVIRAL AGENT” (priority 2011, published 2013).

`C=C1C(=O)O[C@@H]2[C@@H]1[C@H](OC(=O)/C(C)=C\C)[C@@]1(O)O[C@H](C[C@@H]1C)C[C@@](C)(O)[C@H]2OC(=O)C(C)C` [Compound I, 2α,5-epoxy-5,10-dihydroxy-6α-angeloyloxy-9β-isobutyloxy-germacran-8α,12-olide] showed a CPE inhibitory concentration greater than 10 µg/mL and a log100TCID50/ of 0.
In the same order, the values of `C=C1C(=O)O[C@@H]2[C@@H]1[C@H](OC(=O)/C(C)=C\C)[C@@]1(O)O[C@H](C[C@@H]1C)C[C@@](C)(O)[C@H]2OC(=O)CC(C)C` [Compound III, 2α,5-epoxy-5,10-dihydroxy-6α-angeloyloxy-9β-(3-methyl-butanoyloxy)-gemacran-8α,12-olide] are greater than 10 µg/mL and 0.
`C=C1C(=O)OC2CC(C)(O)C3CCC(C)(O)C3CC12` (stereo not drawn) [Compound IV, 4β,10α-dihydroxy-guaia-8α,12-olide]: the Activity result is given as “∘ (key: ∘: antiviral activity defined as a decrease of 4 log units)”, the log100TCID50/ is given as 5 and the “viral titer lower than that of the control group” value is 4 log.
